US20180311225A1, “EXTERNAL PREPARATION” (TEIKA PHARMACEUTICAL CO., LTD., priority 2015, published 2018)

System: allergic reaction at the conjunctiva sites (vascular hyperpermeability) of Wistar rats
Test: Rat passive allergic conjunctivitis model, Evans blue dye leakage (absorbance at 620 nm)
Type: in vivo
Conditions: Example 2, FIG. 1, presence or absence of the component
From the text: As a trigger solution was used a solution prepared by mixing equal volumes of 1% (w/v) ovalbumin (Grade V; manufactured by Sigma-Aldrich Co. LLC)/physiological saline (manufactured by Otsuka Pharmaceutical Co., Ltd.) and 1% (w/v) Evans blue (manufactured by Wako Pure Chemical Industries, Ltd.)/physiological saline.
As an extraction solution was used an aqueous solution of acetone (manufactured by Wako Pure Chemical Industries, Ltd.)/0.5% (w/v) sodium sulfate (manufactured by Wako Pure Chemical Industries. Ltd.) (7:3).
After 48 h, 1 mL of the trigger solution was intravenously administered to trigger an allergic reaction at the conjunctiva sites. Then, each test solution was dropped onto the eyes at 15 min before and immediately before triggering the allergic reaction (the total of 2 times). […] The overnight extraction solution was centrifuged to recover a supernatant. Absorbance of the supernatant was measured at 620 nm.
Vascular hyperpermeability caused by an allergic reaction results in leakage of Evans blue. Thus, the less the amount of leakage of the dye, the more the vascular hyperpermeability is suppressed. This should be an indicator of the antiallergic effects. The amount of leakage of dye per tissue unit (gig/g) was calculated by using a predetermined standard curve. A dye amount ratio was calculated using the following equation to give an indicator of the suppression effects. […]

Compound | Contribution of the component to the antiallergic action when combined with ketotifen fumarate (group 6 compared with group 7, 8 or 10)
[Cl-].[Na+] [sodium chloride] | can contribute to an antiallergic action
O=C([O-])O.[Na+] [sodium bicarbonate] | can contribute to an antiallergic action
